These results are taken from PubChem BioAssay (NCI).

Holding throughout (assay): NCI anticancer screen, dose series, 48 h
The test system of experiment [1] is U251 CNS.
Experiment [2] deals with SW-620 colon.
Experiment [3] relates to HCT-15 colon.
Experiment [4] concerns IGROV1 ovarian.
The test system of experiment [5] is KM12 colon.
Experiment [6] relates to SF-295 CNS.
The subject of experiment [7] is SNB-75 CNS.
Experiment [8] deals with SF-539 CNS.
The subject of experiment [9] is UACC-257 melanoma.
The subject of experiment [10] is ACHN renal.

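Values below derive from 48-hour exposures of cells grown in 96-well plates, with endpoints linearly interpolated between the two concentrations bracketing the appropriate inhibition level. The concentration for full growth arrest is given as TGI.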 Bounds are passed on as bounds.

As for `CCOC(=O)Cn1c(C(F)(F)F)nc2nc(Cl)c(Cl)nc21`, the TGI in [1] was > 100 µM; in [2], > 100 µM; in [3], > 100 µM; in experiment [4] it was > 76.6 µM; in [5], 34 µM; in [6], > 100 µM. The TGI in experiment [7] was > 100 µM; in experiment [8] it was > 85.4 µM; in experiment [9] it was 53.4 µM; in experiment [10], > 67.9 µM.
